What was measured:
[1] = tested on: HIF-1α; conditions: colon cancers, oxygen concentrations from 5 to 1%; cited from earlier work
[2] = clinical; conditions: human, in vivo
Experimental: Concentration-time curve and PK parameters were analyzed for each compound. Maximal concentrations (Cmax) and the time to reach the Cmax (Tmax) were graphically identified and the AUC was calculated with a non-compartmental method.

**Q.** What does the source list for CCc1c2c(nc3ccc(OC(=O)N4CCC(N5CCCCC5)CC4)cc13)-c1cc3c(c(=O)n1C2)COC(=O)[C@]3(O)CC [irinotecan]?
**A.** inhibition of HIF-1α [1]: high inhibition of HIF-1α; Tmax ([2]; Irinotecan D1 Tmax): 1.67 h; AUC ([2]; irinotecan mean AUC): 6.74 µg·h/mL; AUC ([2]; mean AUC of irinotecan): 6.87 µg·h/mL; AUC ([2]; mean irinotecan AUCs): 5.97 µg·h/mL

**Q.** For CO[C@H]1C[C@@H]2CC[C@@H](C)[C@@](O)(O2)C(=O)C(=O)N2CCCC[C@H]2C(=O)O[C@H]([C@H](C)C[C@@H]2CC[C@@H](O)[C@H](OC)C2)CC(=O)[C@H](C)/C=C(\C)[C@@H](O)[C@@H](OC)C(=O)[C@H](C)C[C@H](C)/C=C/C=C/C=C/1C [rapamycin], which concentration at 8 day ([2]; D8 rapamycin concentrations) is on record?
**A.** Its concentration at 8 day is 6.75 ng/mL.

**Q.** And the Tmax ([2]; Rapamycin D1 Tmax)?
**A.** Its Tmax is 3.5 h.

**Q.** What about the AUC ([2]; mean AUC of D8 rapamycin) of the same compound?
**A.** Its AUC is 0.176 µg·h/mL.

Source: PMC7656302 (Cancers, 2020)
